Key:
[1] = tested on: Chilo suppressalis (Striped rice stemborer); test: Example B4: Chilo suppressalis (Striped rice stemborer), artificial diet; format: in vivo; details: 144 h, application rate 200 ppm, L2 larvae, 6 days after infestation, read-out: control in at least one of the three categories (mortality, anti-feedant effect, or growth inhibition)
Procedure: Example B4: Chilo suppressalis (Striped rice stemborer) 24-well microtiter plates with artificial diet were treated with aqueous test solutions prepared from 10′000 ppm DMSO stock solutions by pipetting. After drying, the plates were infested with L2 larvae (6-8 per well). The samples were assessed for mortality, anti-feeding effect, and growth inhibition in comparison to untreated samples 6 days after infestation. Control of Chilo suppressalis by a test sample is given when at least one of the categories mortality, anti-feedant effect, and growth inhibition is higher than the untreated sample.

[2] = tested on: Plutella xylostella (Diamond back moth); test: Example B5: Plutella xylostella (Diamond back moth), artificial diet, 24-well; format: in vivo; details: 192 h, application rate 200 ppm, eggs, 8 days after infestation, read-out: control in at least one of the two categories (mortality or growth inhibition)
Procedure: Example B5: Plutella xylostella (Diamond back moth)
24-well microtiter plates with artificial diet were treated with aqueous test solutions prepared from 10′000 ppm DMSO stock solutions by pipetting. After drying, Plutella eggs were pipetted through a plastic stencil onto a gel blotting paper and the plate was closed with it. The samples were assessed for mortality and growth inhibition in comparison to untreated samples 8 days after infestation.
(§1) The following compounds gave an effect of at least 80% control in at least one of the two categories (mortality or growth inhibition) at an application rate of 200 ppm: […]

[3] = tested on: Spodoptera littoralis (Egyptian cotton leaf worm); test: Example B9: Spodoptera littoralis (Egyptian cotton leaf worm), sprayed cotton leaf discs; format: in vivo; details: foliar, 72 h, application rate 200 ppm, L1 larvae, 3 days after infestation, read-out: control in at least one of the three categories (mortality, anti-feedant effect, or growth inhibition)
Procedure: Example B9: Spodoptera littoralis (Egyptian cotton leaf worm)
Cotton leaf discs were placed onto agar in 24-well microtiter plates and sprayed with aqueous test solutions prepared from 10′000 ppm DMSO stock solutions. After drying the leaf discs were infested with five L1 larvae. The samples were assessed for mortality, anti-feeding effect, and growth inhibition in comparison to untreated samples 3 days after infestation. Control of Spodoptera littoralis by a test sample is given when at least one of the categories mortality, anti-feedant effect, and growth inhibition is higher than the untreated sample.

[4] = tested on: Plutella xylostella (Diamondback Moth); test: Example B13: Plutella xylostella (Diamondback Moth), artificial diet, 96-well; format: in vivo; details: 216 h, application rate 500 ppm, eggs/L1 larvae, 9 days after infestation
Procedure: Example B13: Plutella xylostella (Diamondback Moth)
96-well microtiter plates containing artificial diet were treated with aqueous test solutions, prepared from 10′000 ppm DMSO stock solutions, by a liquid handling robot. After drying, eggs (-30 per well) were infested onto a netted lid which was suspended above the diet. The eggs hatch and L1 larvae move down to the diet. The samples were assessed for mortality 9 days after infestation.
The following compounds gave an effect of at least 80% mortality at an application rate of 500 ppm: […]

[5] = tested on: Diabrotica balteata (Corn root worm); test: Example B1: Diabrotica balteata (Corn root worm), sprayed maize sprouts; format: in vivo; details: 96 h, application rate 200 ppm, L2 larvae, 4 days after infestation, read-out: control in at least one of the two categories (mortality or growth inhibition)
Procedure: Example B1: Diabrotica balteata (Corn root worm)
Maize sprouts placed onto an agar layer in 24-well microtiter plates were treated with aqueous test solutions prepared from 10′000 ppm DMSO stock solutions by spraying. After drying, the plates were infested with L2 larvae (6 to 10 per well). The samples were assessed for mortality and growth inhibition in comparison to untreated samples 4 days after infestation.
as §1

[6] = tested on: Euschistus heros (Neotropical Brown Stink Bug); test: Example B2: Euschistus heros (Neotropical Brown Stink Bug), sprayed soybean leaves; format: in vivo; details: 120 h, application rate 200 ppm, N2 nymphs, 5 days after infestation, read-out: effect in at least one of the two categories (mortality or growth inhibition)
Procedure: Example B2: Euschistus heros (Neotropical Brown Stink Bug)
Soybean leaves on agar in 24-well microtiter plates were sprayed with aqueous test solutions prepared from 10′000 ppm DMSO stock solutions. After drying the leaves were infested with N2 nymphs. The samples were assessed for mortality and growth inhibition in comparison to untreated samples 5 days after infestation.
The following compounds gave an effect of at least 80% in at least one of the two categories (mortality or growth inhibition) at an application rate of 200 ppm: […]

CC(NC(=O)c1cc(C(F)(F)F)cc(S(=O)(=O)C(F)(F)F)c1)c1ncnn1-c1ccc(OC(F)F)cn1 (stereo not shown) [P28, N-[1-[2-[5-(difluoromethoxy)-2-pyridyl]-1,2,4-triazol-3-yl]ethyl]-3-(trifluoromethyl)-5-(trifluoromethylsulfonyl) benzamide]
≥ 80%: percent control (mortality, anti-feedant effect or growth inhibition) at 200 ppm [1] | percent control (mortality or growth inhibition) at 200 ppm [2] | percent control (mortality, anti-feedant effect or growth inhibition) at 200 ppm [3] | mortality at 500 ppm [4]

CC(NC(=O)c1cc(C(F)(F)F)nc(C2(C#N)CC2)c1)c1ncnn1-c1ccc(C#N)cn1 (stereo not shown) [P3, 2-(1-cyanocyclopropyl)-N-[1-[2-(5-cyano-2-pyridyl)-1,2,4-triazol-3-yl]ethyl]-6-(trifluoromethyl)pyridine-4-carboxamide]
≥ 80%: percent control (mortality or growth inhibition) at 200 ppm [5] | percent control (mortality, anti-feedant effect or growth inhibition) at 200 ppm [1] | percent control (mortality or growth inhibition) at 200 ppm [2] | percent control (mortality, anti-feedant effect or growth inhibition) at 200 ppm [3] | mortality at 500 ppm [4]

CC(NC(=O)c1cc(C(F)(F)F)cc(C(F)(F)C2CC2)c1)c1ncnn1-c1ccc(OCC(F)(F)F)cn1 (stereo not shown) [P35, 3-[cyclopropyl(difluoro)methyl]-N-[1-[2-[5-(2,2,2-trifluoroethoxy)-2-pyridyl]-1,2,4-triazol-3-yl]ethyl]-5-(trifluoromethyl) benzamide]
48 to 52 °C: melting point

CC(NC(=O)c1cc(C(F)(F)F)cc(S(=O)(=O)C(F)(F)F)c1)c1ncnn1-c1ncc(OCC(F)(F)F)cn1 (stereo not shown) [P29, N-[1-[2-[5-(2,2,2-trifluoroethoxy)pyrimidin-2-yl]-1,2,4-triazol-3-yl]ethyl]-3-(trifluoromethyl)-5-(trifluoromethylsulfonyl) benzamide]
≥ 80%: percent control (mortality, anti-feedant effect or growth inhibition) at 200 ppm [1] | percent control (mortality or growth inhibition) at 200 ppm [2] | mortality at 500 ppm [4]

CC(NC(=O)c1cc(C(F)(F)F)nc(C2(C#N)CC2)c1)c1ncnn1-c1ccc(OCC(F)(F)F)cn1 (stereo not shown) [P33, 2-(1-cyanocyclopropyl)-N-[1-[2-[5-(2,2,2-trifluoroethoxy)-2-pyridyl]-1,2,4-triazol-3-yl]ethyl]-6-(trifluoromethyl) pyridine-4-carboxamide]
170 to 175 °C: melting point

CC(NC(=O)c1cc(C(F)(F)F)cc(C2(C#N)CC2)c1)c1ncnn1-c1ccc(OCC(F)(F)F)cn1 (stereo not shown) [P34, 3-(1-cyanocyclopropyl)-N-[1-[2-[5-(2,2,2-trifluoroethoxy)-2-pyridyl]-1,2,4-triazol-3-yl]ethyl]-5-(trifluoromethyl) benzamide]
70 to 75 °C: melting point

CC(NC(=O)c1cc(C(F)(F)F)cc(C(F)(F)C2CC2)c1)c1ncnn1-c1ncc(OC(F)F)cn1 (stereo not shown) [P6, 3-[cyclopropyl(difluoro)methyl]-N-[1-[2-[5-(difluoromethoxy)pyrimidin-2-yl]-1,2,4-triazol-3-yl]ethyl]-5-(trifluoromethyl) benzamide]
≥ 80%: percent control (mortality or growth inhibition) at 200 ppm [5] | percent effect (mortality or growth inhibition) at 200 ppm [6] | percent control (mortality, anti-feedant effect or growth inhibition) at 200 ppm [1] | percent control (mortality or growth inhibition) at 200 ppm [2] | percent control (mortality, anti-feedant effect or growth inhibition) at 200 ppm [3] | mortality at 500 ppm [4]

CC(NC(=O)c1cc(C2CC2C(F)(F)F)cc(C(F)(F)F)c1)c1ncnn1-c1ncc(OCC(F)F)cn1 (stereo not shown) [P12]
≥ 80%: percent control (mortality or growth inhibition) at 200 ppm [5] | percent effect (mortality or growth inhibition) at 200 ppm [6] | percent control (mortality, anti-feedant effect or growth inhibition) at 200 ppm [1] | percent control (mortality or growth inhibition) at 200 ppm [2] | percent control (mortality, anti-feedant effect or growth inhibition) at 200 ppm [3]

CC(NC(=O)c1cc(C(F)(F)F)cc(S(=O)(=O)C(F)(F)F)c1)c1ncnn1-c1ccc(OCC(F)(F)F)cn1 (stereo not shown) [P32, N-[1-[2-[5-(2,2,2-trifluoroethoxy)-2-pyridyl]-1,2,4-triazol-3-yl]ethyl]-3-(trifluoromethyl)-5-(trifluoromethylsulfonyl) benzamide]
125 to 130 °C: melting point

CC(NC(=O)c1cc(C2CC2)cc(C(F)(F)F)c1)c1ncnn1-c1ccc(C#N)cn1 (stereo not shown) [P14, N-[1-[2-(5-cyano-2-pyridyl)-1,2,4-triazol-3-yl]ethyl]-3-cyclopropyl-5-(trifluoromethyl)benzamide]
≥ 80%: percent control (mortality or growth inhibition) at 200 ppm [5] | percent control (mortality, anti-feedant effect or growth inhibition) at 200 ppm [1] | percent control (mortality or growth inhibition) at 200 ppm [2] | percent control (mortality, anti-feedant effect or growth inhibition) at 200 ppm [3] | mortality at 500 ppm [4]

CC(NC(=O)c1cc(C2CC2)nc(C(F)(F)F)c1)c1ncnn1-c1ncc(OC(F)F)cn1 (stereo not shown) [P9, 2-cyclopropyl-N-[1-[2-[5-(difluoromethoxy)pyrimidin-2-yl]-1,2,4-triazol-3-yl]ethyl]-6-(trifluoromethyl) pyridine-4-carboxamide]
≥ 80%: percent control (mortality or growth inhibition) at 200 ppm [5] | percent effect (mortality or growth inhibition) at 200 ppm [6] | percent control (mortality, anti-feedant effect or growth inhibition) at 200 ppm [1] | percent control (mortality or growth inhibition) at 200 ppm [2] | percent control (mortality, anti-feedant effect or growth inhibition) at 200 ppm [3]

CC(NC(=O)c1cc(C2CC2)cc(C(F)(F)F)c1)c1ncnn1-c1ncc(OC(F)F)cn1 (stereo not shown) [P21, 3-cyclopropyl-N-[1-[2-[5-(difluoromethoxy)pyrimidin-2-yl]-1,2,4-triazol-3-yl]ethyl]-5-(trifluoromethyl) benzamide]
≥ 80%: percent control (mortality or growth inhibition) at 200 ppm [5] | percent effect (mortality or growth inhibition) at 200 ppm [6] | percent control (mortality, anti-feedant effect or growth inhibition) at 200 ppm [1] | percent control (mortality or growth inhibition) at 200 ppm [2] | percent control (mortality, anti-feedant effect or growth inhibition) at 200 ppm [3]

CC(NC(=O)c1cc(C(F)(F)F)cc(S(=O)(=O)C(F)(F)F)c1)c1ncnn1-c1ncc(OCC(F)F)cn1 (stereo not shown) [P16, N-[1-[2-[5-(2,2-difluoroethoxy)pyrimidin-2-yl]-1,2,4-triazol-3-yl]ethyl]-3-(trifluoromethyl)-5-(trifluoromethylsulfonyl) benzamide]
≥ 80%: percent control (mortality or growth inhibition) at 200 ppm [5] | percent control (mortality, anti-feedant effect or growth inhibition) at 200 ppm [1] | percent control (mortality or growth inhibition) at 200 ppm [2] | percent control (mortality, anti-feedant effect or growth inhibition) at 200 ppm [3]

CC(NC(=O)c1cc(C(F)(F)F)cc(C(F)(F)C2CC2)c1)c1ncnn1-c1ccc(OCC(F)F)cn1 (stereo not shown) [P36, 3-[cyclopropyl(difluoro)methyl]-N-[1-[2-[5-(2,2-difluoroethoxy)-2-pyridyl]-1,2,4-triazol-3-yl]ethyl]-5-(trifluoromethyl) benzamide]
105 to 110 °C: melting point

CC(NC(=O)c1cc(C(F)(F)F)cc(C2(C#N)CC2)c1)c1ncnn1-c1ccc(OC(F)F)cn1 (stereo not shown) [P24, 3-(1-cyanocyclopropyl)-N-[1-[2-[5-(difluoromethoxy)-2-pyridyl]-1,2,4-triazol-3-yl]ethyl]-5-(trifluoromethyl) benzamide]
≥ 80%: percent control (mortality or growth inhibition) at 200 ppm [5] | percent control (mortality, anti-feedant effect or growth inhibition) at 200 ppm [1] | percent control (mortality or growth inhibition) at 200 ppm [2] | percent control (mortality, anti-feedant effect or growth inhibition) at 200 ppm [3]

CC(NC(=O)c1cc(C(F)(F)F)cc(S(=O)(=O)C(F)(F)F)c1)c1ncnn1-c1ncc(OC(F)F)cn1 (stereo not shown) [P27, N-[1-[2-[5-(difluoromethoxy)pyrimidin-2-yl]-1,2,4-triazol-3-yl]ethyl]-3-(trifluoromethyl)-5-(trifluoromethylsulfonyl) benzamide]
≥ 80%: percent control (mortality, anti-feedant effect or growth inhibition) at 200 ppm [1] | percent control (mortality or growth inhibition) at 200 ppm [2] | percent control (mortality, anti-feedant effect or growth inhibition) at 200 ppm [3] | mortality at 500 ppm [4]
